Experiment [1] concerns the target T1, human JAK1 (a.a. 837-1142) (Homo sapiens, UniProt P23458).
T1 construct: The catalytic domains of human JAK1 (a.a. 837-1142); His tag (N); made in house; host or cells: insect cells (baculovirus)
Kind of experiment: In vitro JAK kinase assay (HTRF, phosphorylation of biotinylated peptide), JAK1. It counts as biochemical. The method, then:
(§1) Compounds herein were tested for inhibitory activity of JAK targets according to the following in vitro assay described in Park et al., Analytical Biochemistry 1999, 269, 94-104. The catalytic domains of human JAK1 (a.a. 837-1142), Jak2 (a.a. 828-1132) and Jak3 (a.a. 781-1124) with an N-terminal His tag were expressed using baculovirus in insect cells and purified. The catalytic activity of JAK1, JAK2 or JAK3 was assayed by measuring the phosphorylation of a biotinylated peptide. The phosphorylated peptide was detected by homogenous time resolved fluorescence (HTRF). IC50s of compounds were measured for each kinase in the 40 microL reactions that contain the enzyme, ATP and 500 nM peptide in 50 mM Tris (pH 7.8) buffer with 100 mM NaCl, 5 mM DTT, and 0.1 mg/mL (0.01%) BSA. The ATP concentration in the reactions was 90 μM for Jak1, 30 μM for Jak2 and 3 μM for Jak3 for Km conditions. For the 1 mM IC50 measurements, ATP concentration in the reactions was 1 mM. Reactions were carried out at room temperature for 1 hr and then stopped with 20 μL 45 mM EDTA, 300 nM SA-APC, 6 nM Eu-Py20 in assay buffer (Perkin Elmer, Boston, Mass.). Binding to the Europium labeled antibody took place for 40 minutes and HTRF signal was measured on a Fusion plate reader (Perkin Elmer, Boston, Mass.). See Tables 1, 2, 3, and 4 for data related to compounds of the invention.

The next experiment concerns the target T2, Jak2 (a.a. 828-1132) (Homo sapiens, UniProt O60674).
T2 construct: Jak2 (a.a. 828-1132); His tag (N); made in house; host or cells: insect cells (baculovirus)
The experiment in a line: In vitro JAK kinase assay (HTRF, phosphorylation of biotinylated peptide), JAK2. It counts as biochemical. The method, then:
as §1

Setting [2] is: 1 mM ATP, Examples 92-162, read-out: JAK1 IC50 (nM) @ 1 mM ATP.
The mark [3] stands for this setting: 1 mM ATP, Examples 92-162, read-out: JAK2 IC50 (nM) @ 1 mM ATP.
[4] abbreviates: 1 mM ATP, Examples 1-11, read-out: IC50 (nM) @ 1 mM ATP JAK1.
Setting [5] is: Km ATP (90 μM for Jak1), Examples 1-11, read-out: IC50 (nM) @ Km ATP JAK1.
Setting [6] is: 1 mM ATP, Examples 1-11, read-out: IC50 (nM) @ 1 mM ATP JAK2.
Setting [7] is: Km ATP (30 μM for Jak2), Examples 1-11, read-out: IC50 (nM) @ Km ATP JAK2.
Where [8] appears, read: 1 mM ATP, Examples 12-91, read-out: JAK1 IC50 (nM) @ 1 mM ATP.
Where [9] appears, read: 1 mM ATP, Examples 12-91, read-out: JAK2 IC50 (nM) @ 1 mM ATP.

Each structure is given as a SMILES string. Structures can show the parent of a compound that is named as a salt. Where two headings read alike, the source gives them in different places.

T1 sequence (P23458 849-1154): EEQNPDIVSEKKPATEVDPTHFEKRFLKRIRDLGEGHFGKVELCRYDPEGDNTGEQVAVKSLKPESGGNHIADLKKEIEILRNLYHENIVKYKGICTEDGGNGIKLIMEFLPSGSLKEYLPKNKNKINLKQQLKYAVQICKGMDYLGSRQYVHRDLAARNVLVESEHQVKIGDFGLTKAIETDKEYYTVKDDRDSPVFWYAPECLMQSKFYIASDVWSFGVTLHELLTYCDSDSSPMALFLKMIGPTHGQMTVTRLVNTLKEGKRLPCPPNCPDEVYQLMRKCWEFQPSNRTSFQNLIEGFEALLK
T2 sequence (O60674 828-1132): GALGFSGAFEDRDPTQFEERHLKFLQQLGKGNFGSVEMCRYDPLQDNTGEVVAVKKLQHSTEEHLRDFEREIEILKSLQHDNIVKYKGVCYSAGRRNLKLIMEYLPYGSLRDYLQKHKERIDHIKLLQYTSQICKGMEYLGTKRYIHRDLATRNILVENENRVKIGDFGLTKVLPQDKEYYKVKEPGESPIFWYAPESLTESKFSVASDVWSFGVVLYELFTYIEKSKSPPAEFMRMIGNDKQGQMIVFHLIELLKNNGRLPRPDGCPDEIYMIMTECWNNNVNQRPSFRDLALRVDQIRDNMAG

Regarding `N#CCC(CN1CCN(C(=O)c2ccc(C#N)cc2F)CC1C(F)F)n1cc(-c2ncnc3[nH]ccc23)cn1` (single isomer, unassigned) [Example 159—peak 2, 4-{[4-{3-cyano-2-[4-(7H-pyrrolo[2,3-d]pyrimidin-4-yl)-1H-pyrazol-1-yl]propyl}-3-(difluoromethyl)piperazin-1-yl]carbonyl}-3-fluorobenzonitrile], the IC50 (in experiment [1] (setting [2]); at Jak2 (a.a. 828-1132) (setting [3])) was 50 to 100 nM in each case.
Turning to `N#CCC(CN1CCN(C(=O)c2ccc(C#N)cc2F)CC1C(F)F)n1cc(-c2ncnc3[nH]ccc23)cn1` (single isomer, unassigned) [Example 159—peak 3, 4-{[4-{3-cyano-2-[4-(7H-pyrrolo[2,3-d]pyrimidin-4-yl)-1H-pyrazol-1-yl]propyl}-3-(difluoromethyl)piperazin-1-yl]carbonyl}-3-fluorobenzonitrile], the IC50 is less than 20 nM in experiment [1] (setting [2]) and 20 to 50 nM on Jak2 (a.a. 828-1132) (setting [3]).
For the molecule `CS(=O)(=O)N1CCN(CC(CC#N)n2cc(-c3ncnc4[nH]ccc34)cn2)CC1` (stereo not drawn) [Example 1, 4-[4-(methylsulfonyl)piperazin-1-yl]-3-[4-(7H-pyrrolo[2,3-d]pyrimidin-4-yl)-1H-pyrazol-1-yl]butanenitrile], the IC50 was less than 10 nM in experiment [1] (setting [4]), less than 10 nM in experiment [1] (setting [5]), 10 to 20 nM at Jak2 (a.a. 828-1132) (setting [6]) and less than 10 nM on Jak2 (a.a. 828-1132) (setting [7]).
With `N#CCC(CN1CCN(C(=O)c2ccc(C#N)cc2)CC1)n1cc(-c2ncnc3[nH]ccc23)cn1` (stereo not drawn) [Example 2, 4-[(4-{3-cyano-2-[4-(7H-pyrrolo[2,3-d]pyrimidin-4-yl)-1H-pyrazol-1-yl]propyl}piperazin-1-yl)carbonyl]benzonitrile], the IC50 in experiment [1] (setting [4]) was less than 10 nM; in experiment [1] (setting [5]), less than 10 nM; at Jak2 (a.a. 828-1132) (setting [6]) it was more than 20 nM; at Jak2 (a.a. 828-1132) (setting [7]) it was 10 to 20 nM.
Turning to `N#CCC(CN1CCN(C(=O)c2cc(F)cc(F)c2)CC1)n1cc(-c2ncnc3[nH]ccc23)cn1` (stereo not drawn) [Example 3, 4-[4-(3,5-difluorobenzoyl)piperazin-1-yl]-3-[4-(7H-pyrrolo[2,3-d]pyrimidin-4-yl)-1H-pyrazol-1-yl]butanenitrile], the IC50 in experiment [1] (setting [4]) was 10 to 20 nM; in experiment [1] (setting [5]), less than 10 nM; on Jak2 (a.a. 828-1132) (setting [6]), less than 10 nM; at Jak2 (a.a. 828-1132) (setting [7]) it was less than 10 nM.
Regarding `Cn1ccc(S(=O)(=O)N2CCN(CC(CC#N)n3cc(-c4ncnc5[nH]ccc45)cn3)CC2)n1` (stereo not drawn) [Example 4, 4-{4-[(1-methyl-1H-pyrazol-3-yl)sulfonyl]piperazin-1-yl}-3-[4-(7H-pyrrolo[2,3-d]pyrimidin-4-yl)-1H-pyrazol-1-yl]butanenitrile], the IC50 (in experiment [1] (setting [4]); in experiment [1] (setting [5]); on Jak2 (a.a. 828-1132) (setting [6]); at Jak2 (a.a. 828-1132) (setting [7])) was less than 10 nM in each case.
On to `N#CCC(CC1CCN(S(=O)(=O)C2CC2)CC1)n1cc(-c2ncnc3[nH]ccc23)cn1` (stereo not drawn) [Example 5, 4-[1-(cyclopropylsulfonyl)piperidin-4-yl]-3-[4-(7H-pyrrolo[2,3-d]pyrimidin-4-yl)-1H-pyrazol-1-yl]butanenitrile], for which the IC50 (in experiment [1] (setting [5]); on Jak2 (a.a. 828-1132) (setting [6]); on Jak2 (a.a. 828-1132) (setting [7])) was less than 10 nM each time.
As for `N#CCC(CC1CCN(C(=O)c2ccc(F)cc2F)CC1)n1cc(-c2ncnc3[nH]ccc23)cn1` (stereo not drawn) [Example 6, 4-[1-(2,4-difluorobenzoyl)piperidin-4-yl]-3-[4-(7H-pyrrolo[2,3-d]pyrimidin-4-yl)-1H-pyrazol-1-yl]butanenitrile], the IC50 (in experiment [1] (setting [5]); at Jak2 (a.a. 828-1132) (setting [7])) was less than 10 nM in each case.
Take `Cn1ccc(S(=O)(=O)N2CCC(CC(CC#N)n3cc(-c4ncnc5[nH]ccc45)cn3)CC2)n1` (stereo not drawn) [Example 7, 4-{1-[(1-methyl-1H-pyrazol-3-yl)sulfonyl]piperidin-4-yl}-3-[4-(7H-pyrrolo[2,3-d]pyrimidin-4-yl)-1H-pyrazol-1-yl]butanenitrile]: the IC50 (in experiment [1] (setting [4]); in experiment [1] (setting [5]); on Jak2 (a.a. 828-1132) (setting [6]); on Jak2 (a.a. 828-1132) (setting [7])) was less than 10 nM in each case.
Consider `N#CCC(CC1CCN(C(=O)c2ccc(F)cc2)CC1)n1cc(-c2ncnc3[nH]ccc23)cn1` (stereo not drawn) [Example 8, 4-[1-(4-fluorobenzoyl)piperidin-4-yl]-3-[4-(7H-pyrrolo[2,3-d]pyrimidin-4-yl)-1H-pyrazol-1-yl]butanenitrile], for which the IC50 (in experiment [1] (setting [5]); at Jak2 (a.a. 828-1132) (setting [6]); at Jak2 (a.a. 828-1132) (setting [7])) was less than 10 nM throughout.
Regarding `CC(CN1CCN(S(=O)(=O)c2ccn(C)n2)CC1)n1cc(-c2ncnc3[nH]ccc23)cn1` (stereo not drawn) [Example 9, 4-[1-(1-methyl-2-{4-[(1-methyl-1H-pyrazol-3-yl)sulfonyl]piperazin-1-yl}ethyl)-1H-pyrazol-4-yl]-7H-pyrrolo[2,3-d]pyrimidine, phosphoric acid salt], the values for the IC50 (in experiment [1] (setting [4]); at Jak2 (a.a. 828-1132) (setting [6])) were less than 10 nM and more than 20 nM, respectively.
The corresponding values for `CC(CN1CCN(S(=O)(=O)c2ccn(C)n2)CC1)n1cc(-c2ncnc3[nH]ccc23)cn1` (stereo not drawn) [Example 11, 4-[1-(1-methyl-2-{4-[(1-methyl-1H-pyrazol-3-yl)sulfonyl]piperazin-1-yl}ethyl)-1H-pyrazol-4-yl]-7H-pyrrolo[2,3-d]pyrimidine bis(phosphate) Salt] are less than 10 nM and more than 20 nM.
`N#CCC(CN1CCN(C(=O)c2ccc(C(F)F)cc2F)CC1)n1cc(-c2ncnc3[nH]ccc23)cn1` (stereo not drawn) [Example 14, 4-{4-[4-(difluoromethyl)-2-fluorobenzoyl]piperazin-1-yl}-3-[4-(7H-pyrrolo[2,3-d]pyrimidin-4-yl)-1H-pyrazol-1-yl]butanenitrile]: the figures for the IC50 (in experiment [1] (setting [8]); at Jak2 (a.a. 828-1132) (setting [9])) were less than 10 nM and 10 to 50 nM, respectively.
The corresponding values for `N#CCC(CN1CCN(C(=O)c2c(F)cc(C#N)cc2F)CC1)n1cc(-c2ncnc3[nH]ccc23)cn1` (stereo not drawn) [Example 15, 4-[(4-{3-cyano-2-[4-(7H-pyrrolo[2,3-d]pyrimidin-4-yl)-1H-pyrazol-1-yl]propyl}piperazin-1-yl)carbonyl]-3,5-difluorobenzonitrile phosphate Salt] are less than 10 nM and 50 to 100 nM.
As for `N#CCC(CN1CCN(C(=O)c2ncc(Cl)cc2F)CC1)n1cc(-c2ncnc3[nH]ccc23)cn1` (stereo not drawn) [Example 16, 4-{4-[(5-chloro-3-fluoropyridin-2-yl)carbonyl]piperazin-1-yl}-3-[4-(7H-pyrrolo[2,3-d]pyrimidin-4-yl)-1H-pyrazol-1-yl]butanenitrile], the IC50 (in experiment [1] (setting [8]); at Jak2 (a.a. 828-1132) (setting [9])) was less than 10 nM each time.
Regarding `N#CCC(CN1CCN(C(=O)c2ncc(C#N)cc2F)CC1)n1cc(-c2ncnc3[nH]ccc23)cn1` (stereo not drawn) [Example 17, 6-[(4-{3-cyano-2-[4-(7H-pyrrolo[2,3-d]pyrimidin-4-yl)-1H-pyrazol-1-yl]propyl}piperazin-1-yl)carbonyl]-5-fluoronicotinonitrile], the figures for the IC50 (in experiment [1] (setting [8]); on Jak2 (a.a. 828-1132) (setting [9])) were 10 to 50 nM and more than 100 nM, respectively.
The corresponding values for `COc1ccc(C(=O)N2CCN(CC(CC#N)n3cc(-c4ncnc5[nH]ccc45)cn3)CC2)cc1F` (stereo not drawn) [Example 18, 4-[4-(3-fluoro-4-methoxybenzoyl)piperazin-1-yl]-3-[4-(7H-pyrrolo[2,3-d]pyrimidin-4-yl)-1H-pyrazol-1-yl]butanenitrile phosphate Salt] are 10 to 50 nM and 50 to 100 nM.
The corresponding values for `N#CCC(CN1CCN(C(=O)c2ncc(C(F)(F)F)cc2F)CC1)n1cc(-c2ncnc3[nH]ccc23)cn1` (stereo not drawn) [Example 19, 4-(4-{[3-fluoro-5-(trifluoromethyl)pyridin-2-yl]carbonyl}piperazin-1-yl)-3-[4-(7H-pyrrolo[2,3-d]pyrimidin-4-yl)-1H-pyrazol-1-yl]butanenitrile] are 10 to 50 nM and more than 100 nM.

The IC50 is the concentration needed to halve the response being measured.

(Values after patent US9249145B2, “Heterocyclic derivatives of pyrazol-4-yl-pyrrolo[2,3-d]pyrimidines as janus kinase inhibitors” (Incyte Holdings Corporation, priority 2009, dated 2016).)
